Assay results reported in patent US4242262A, “9-Nitromethyldeoxyclavulanic acid derivatives preparation and compositions” (Beecham Group Limited, priority 1977, dated 1980).

How the values were obtained:
Proteus C 889 = assay: MIC of ampicillin alone or with compound of the Example, Proteus C 889; type: cell-based
Kleb. E 70 = assay: MIC of ampicillin alone or with compound of the Example, Kleb. E 70; type: cell-based
[1] = table 2 (no quantity or unit in head), Ampicillin alone

MIC (Proteus C 889; table 1, Ampicillin alone): > 500 µg/mL
MIC (Proteus C 889; [1]): > 500 µg/mL
MIC (Kleb. E 70; table 1, Ampicillin alone): > 500 µg/mL
MIC (Kleb. E 70; [1]): 22 500
SMILES: CC1(C)S[C@@H]2[C@H](NC(=O)[C@H](N)c3ccccc3)C(=O)N2[C@H]1C(=O)O [Ampicillin]
